Assay results reported in ChEMBL document CHEMBL1157539, “Thousands of chemical starting points for antimalarial lead identification” (Nature, 2010).

tested on: Plasmodium falciparum; test: GSK_TCMDC: Inhibition of Plasmodium falciparum 3D7 in whole erythrocytes, using parasite LDH activity as an index of growth.; type: functional, organism-based; settings: Plasmodium falciparum, 3D7

| Compound | XC50 [nM] |
| --- | --- |
| O=C(Nc1ccc([N+](=O)[O-])cc1)c1nn(-c2ccccc2)cc1/N=C/c1cccc(O)c1 | 890 |
| O=C(Nc1cccc(CN2CCCN(Cc3ccc(O)cc3)CC2)c1)c1ccc(Cl)c(Cl)c1 | 259 |
| CCCC(C)N(Cc1ccc(C(C)(C)C)cc1)C(=O)c1ccc(OC)cc1 (configuration not stated) | 111 |
| COc1cccc(-n2ncc3c(N/N=C/c4ccc(CN(C)CCN(C)C)cc4)ncnc32)c1 | 893 |
| O=C(c1ccc(F)c(F)c1)N1CCOC(CCN2CCC(c3ccccc3)CC2)(c2ccc(Cl)c(Cl)c2)C1 (configuration not stated) | 1040 |
| COc1ccc(CNCc2cccc(-c3ccc(-c4nc5ccccc5[nH]4)s3)c2)cc1 | 816 |
| CC(=O)N(C)c1cccc(C(=O)Nc2cccc(-c3cccc(-c4nc5cc(C(F)(F)F)ccc5[nH]4)c3)c2)c1 | 236 |
| CCOC(=O)c1ccc(NC(=O)Nc2cccc(-c3ccc(-c4nc5cc(C(F)(F)F)ccc5[nH]4)cc3)c2)cc1 | 212 |
| CN1CCC(Oc2cc(NC(=O)Nc3ccc(-c4ccncc4)c(Cl)c3)ccc2Cl)CC1 | 530 |
| CC(C)(C)c1ccc(Cn2c(=N)n(CC(=O)c3ccc(-c4ccccc4)cc3)c3ccccc32)cc1 | 158 |
| c1ccc(Oc2ccc(Nc3ccnc(Nc4ccc5cn[nH]c5c4)n3)cc2)cc1 | 733 |
| COc1ccc(C(=O)Nc2ccc3nc(N4CCCCC4)cc(C)c3c2)cc1OC | 994 |
| O=C(CCCCCNC(=O)c1ccc(O)c(-c2ccc(Cl)c(Cl)c2)c1)NC1CCCCCC1 | 947 |
| Cc1ccnc(NC(=O)c2cc(-c3cccc([N+](=O)[O-])c3)nc3onc(C)c23)c1 | 888 |
| c1ccc(Oc2ccc(Nc3ccnc4c(-c5ccccn5)cccc34)cc2)cc1 | 987 |
| CCCCNC[C@@H](O)[C@H](Cc1ccccc1)NC(=O)c1cc2c3c(c1)c(CC)cn3CCS(=O)(=O)N2C | 196 |
| COc1cc2c(cc1S(=O)(=O)c1ccc(NC(=O)c3cc4ccccc4s3)cc1)CCN(C)CC2 | 837 |
| CCc1ccc(CN2CCC(NC(=O)c3ccc(-c4ccccc4F)s3)CC2)cc1 | 1490 |
| Oc1ccccc1CCNCC1CCc2ccccc2C1 (configuration not stated) | 689 |
| Cc1cccc2nc(-c3ccc(-c4cccc(CNC(C)C)c4)s3)[nH]c12 | 231 |
| O=C(Cc1ccc(Cl)cc1)Nc1cc(Cl)ccc1Cn1cnc(N2CCNCC2)cc1=O | 998 |
| Cc1cc(=NN=CC=Cc2ccccc2)c2ccccc2[nH]1 | 757 |
| N=C(N)NCCCN(Cc1ccccc1)c1ccc(Cl)cc1 | 564 |
| Cc1[nH]c(C)c(-c2ccc(-c3ccccc3)nc2)c(=O)c1Br | 661 |
| O=C(Nc1ccc(-c2nc3ccccc3[nH]2)cc1)c1ccc(S(=O)(=O)N2CCCCC2)cc1 | 749 |

| Compound | XC50 [nM] |
| --- | --- |
| O=C(Nc1ccc(Cl)c(C(F)(F)F)c1)Nc1ccc(Cl)c(C(F)(F)F)c1 | 768 |
| O=C(Nc1cccc(CN2CCCN(Cc3ccsc3)CC2)c1)c1ccc(Cl)c(Cl)c1 | 885 |
| O=C(NCC1CCN(Cc2ccsc2)C1)c1cc(-c2cccc(C(F)(F)F)c2)cs1 (configuration not stated) | 700 |
| CCN(CC)CCCC(C)Nc1ccnc2[nH]c3ccccc3c12 (configuration not stated) | 1770 |
| CC(C)c1ccc2c(c1)c(SC(C)(C)C)c(CC(C)(C)C#N)n2Cc1ccc(Cl)cc1 | 225 |
| CCOc1ccc2ccccc2c1CNCCCCCCNCc1c(OCC)ccc2ccccc12 | 576 |
| O=C(c1cc(-c2ccco2)n[nH]1)N1CCN(S(=O)(=O)c2ccc(Br)cc2)CC1 | 497 |
| Fc1cccc(Nc2nc(NCc3ccc(OCc4ccccc4)cc3)nc(Nc3cccc(F)c3)n2)c1 | 1180 |
| c1ccc(CN2CCC(NCc3ccc(-c4ccc(CNCc5cccnc5)cn4)cc3)CC2)cc1 | 879 |
| O=C(NCC1CCN(CC2CCCCC2)C1)c1cc(-c2cccc(Cl)c2)cs1 (configuration not stated) | 1090 |
| OC1CCCN(Cc2ccc(-c3cccc(-c4nc5cc(F)ccc5[nH]4)c3)cc2)C1 (configuration not stated) | 868 |
| CCn1c(-c2nc(-c3ccnc(N4CCN(C)CC4)c3)cnc2N)nc2cc(S(C)(=O)=O)ccc21 | 815 |
| O=C(/C=C/c1ccc(Cl)c(Cl)c1)NCCCCCN1CCCN(C(=O)Nc2cccc(F)c2)CC1 | 757 |
| O=S(=O)(/C=C/c1ccccc1)N(Cc1ccc(-c2ccc(CNCCOc3ccccc3)cc2)cc1)CC1CCCCN1 (configuration not stated) | 744 |
| CS(=O)(=O)CCNC(=O)c1ccc(-c2cc3c(Nc4ccc5c(cnn5Cc5ccccc5)c4)ncnc3cn2)o1 | 995 |
| CC(=NNC(S)=Nc1ccccc1Cl)c1ccccn1 | 80.3 |
| Cc1ccc(F)c(NC(=O)c2c(-c3c(F)cccc3Cl)noc2C)c1 | 934 |
| N#Cc1c(N2CCN(c3ccc(F)cc3)CC2)nc(N)c2c(N)nc3c(c12)CC(=O)N3C1CC1 | 837 |
| COc1cc2nc(Nc3ccc4c(ccn4Cc4ccccc4)c3)nc(Nc3ccc4c(ccn4Cc4ccccc4)c3)c2cc1OC | 647 |
| CCCCCCNC(=N)c1ccc2[nH]c(-c3ccc(O)cc3)nc2c1 | 190 |
| CCCCCc1cc(O)c2c(c1)OC(C)(C)CC2C1=CCN(Cc2cnc3ccccc3c2)CC1 (configuration not stated) | 276 |
| CC[C@H](NC(=O)c1ccc(NC(=O)OC(C)(C)C)cc1)C(=O)N[C@@H](CO)C(=O)NCCCCc1ccccc1 | 830 |
| COc1cc(Nc2ccnc3cc(-c4ccccn4)ccc23)cc(OC)c1OC | 912 |
| COCCCNC(=O)c1ccc(O)c(-c2cc(Cl)cc(Cl)c2)c1 | 923 |
| Cc1ccc(C)c2c1[nH]c1ccc(C3=NCCN3)cc12 | 497 |

| Compound | XC50 [nM] |
| --- | --- |
| CC(=O)Nc1ncc(C(=O)Nc2ccc(-c3cccc(-c4nc5cc(C(F)(F)F)ccc5[nH]4)c3)cc2)s1 | 260 |
| Cc1cc(NC(=O)c2coc3cc(F)c(N4CC(C)N(C)C(C)C4)cc23)ccc1-n1ccnc1 (configuration not stated) | 841 |
| COc1cc(NC2=NS(=O)(=O)c3cc(Cl)ccc3N2C)cc(OC)c1OC | 420 |
| COc1cc2nc(NCCc3ccccc3)nc(N(C)Cc3ccccc3)c2cc1OC | 831 |
| CC(Cc1ccc(Oc2ccccc2)cc1)NCC(O)c1cccc(C(F)(F)F)c1 (configuration not stated) | 674 |
| CN1CCOc2ccc(Nc3nnc(-c4cccc(-c5cccnc5)c4)o3)cc2C1 | 104 |
| COc1cc2c(cc1OC)C(C(=O)Nc1ccc(C(F)(F)F)cc1)C(c1cccs1)N(C)C2=O (configuration not stated) | 158 |
| Oc1ccccc1CN1CCC(CCOC(c2ccccc2)c2ccc(Cl)cc2)CC1 (configuration not stated) | 743 |
| c1ccc2c(c1)CN(Cc1cc3ccccc3[nH]1)CC1(CCN(Cc3c[nH]c4cnccc34)CC1)O2 | 306 |
| CCCC(=O)Nc1ccc(Nc2nc(C)cc(N3CCCC3)n2)cc1 | 1490 |
| CC(C)c1cc(N)c2cc(NC(=O)COCC(=O)Nc3ccc4nc(C(C)C)cc(N)c4c3)ccc2n1 | 216 |
| CCCCCCSc1nnc(COc2cccc3ccccc23)n1-c1ccc(OC)cc1 | 45.2 |
| COc1cc(Nc2nccc(N3CCC(NC(=O)c4cc5ccccc5s4)C3)n2)cc(OC)c1OC (configuration not stated) | 786 |
| O=C(COc1ccc(F)cc1)NC1CCN(c2ccnc3cc(Cl)ccc23)C1 (configuration not stated) | 265 |
| CCOc1ccc2[nH]c(C)cc(=NN=Cc3ccccc3F)c2c1 | 738 |
| COc1ccc2nccc([C@@H](O)CN3CCC(NCCOc4cc(F)cc(F)c4)CC3)c2c1 | 155 |
| O=C(NCc1ccc2c(c1)OCO2)c1nn(CCN2CCC(N3CCCC3)CC2)cc1-c1ccc(Cl)c(Cl)c1 | 935 |
| O=C(/C=C/c1cccc(Cl)c1)N1CCC(C(O)CN2CCC3(CC2)CN(C(=O)/C=C/c2cccc(Cl)c2)c2ccccc23)CC1 (configuration not stated) | 892 |
| O=C(c1cc2c(s1)-c1cccc(Cl)c1SC2)N1CCN(c2ccncc2)CC1 | 1010 |
| CCN(CC)CCOC(=O)C(OC)(c1ccccc1)c1ccccc1 | 1020 |
| O=C(Nc1cccc(C(F)(F)F)c1)Nc1cc(F)c(F)cc1Cl | 1960 |
| O=C(/C=C/c1ccccc1Cl)NC1CCC(CN2CCC(c3c[nH]c4ccncc34)CC2)CC1 (configuration not stated) | 334 |
| COc1ccc2ncc(F)c(CCN3C4CCC3CC(NCc3ccc5c(c3)OCCO5)C4)c2n1 (configuration not stated) | 225 |
| Fc1ccc(CNc2ncc(-c3ccsc3)c(-c3nccs3)n2)cc1 | 72.1 |
| N=C(N)Nc1nc(-c2cc(NC(=O)C(F)(F)F)cc([N+](=O)[O-])c2)cs1 | 781 |

| Compound | XC50 [nM] |
| --- | --- |
| O=C(NC1CC1)c1ccc2cc(C(=O)N3Cc4ccccc4C(c4ccccc4)C3)ccc2c1 (configuration not stated) | 910 |
| O=c1ccc2ncc(Cl)c3c2n1CC3CN1CCC(NCc2cc3c(cn2)OCCO3)CC1 (configuration not stated) | 961 |
| CS(=O)(=O)c1ccc(CNCc2cccc(-c3cccc(-c4nc5cc(C(F)(F)F)ccc5[nH]4)c3)c2)cc1 | 182 |
| COc1ccc(C(=O)Nc2ccc(Cl)cc2C(=O)Nc2ccncc2)cc1 | 822 |
| Cc1ccc(C(C(=O)Nc2ccc(N3CCNCC3)c(Cl)c2)c2ccccc2)cc1 (configuration not stated) | 843 |
| COc1cccc(CNC(=O)c2cccc(-c3ccc(CN4CCC(N5CCCC5)CC4)cc3)n2)c1 | 1790 |
| Clc1cccnc1N1CCN(c2ncccc2Cl)CC1 | 147 |
| Cc1[nH]c2ccc(O)cc2c1C1CCN(CC2CCN(C(=O)/C=C/c3ccc(Cl)c(Cl)c3)CC2)CC1 | 998 |
| CCOC(=O)c1c(C)n(C2CCCCC2)c2cc(Br)c(O)cc12 | 815 |
| N#Cc1cc(C(=O)c2cc(Cl)ccc2O)cn(-c2cc(Cl)cc(Cl)c2)c1=O | 849 |
| CC(C)n1c(CC2CCN(CC3CCN(C(=O)/C=C/c4ccc(Cl)c(Cl)c4)CC3)CC2)nc2ccccc21 | 612 |
| CCCCCCNC[C@@H](O)[C@H](Cc1ccccc1)NC(=O)c1cc(NCC)cc(N2CCCCS2(=O)=O)c1 | 995 |
| O=C(Nc1cccc(F)c1)N(Cc1ccc(-c2ccc(CN3CCNCC3)cc2)cc1)C1CCN(Cc2ccccc2)CC1 | 769 |
| FC(F)(F)c1ccc2[nH]c(-c3ccc(-c4cccc(CNCc5cnn(-c6ccccc6)n5)c4)s3)nc2c1 | 329 |
| CC(C)c1ccc(CN2CCC(CNC(=O)c3cc(-c4cccc(Cl)c4)cs3)C2)cc1 (configuration not stated) | 752 |
| CC(C)(C)c1cc(C(=O)N2CCN(c3ncccc3C(F)(F)F)CC2)n(Cc2ccccc2)n1 | 251 |
| CC[C@H](C)CNC(=O)c1ccc(-c2cccc(CN3CCC(N4CCCC4)CC3)c2)nc1 | 787 |
| Cc1cc(C)c(-c2n[nH]c3c2C(c2cccc(Cl)c2)N(Cc2ccco2)C3=O)c(O)c1 (configuration not stated) | 1010 |
| COc1ccc(C(=O)Nc2ccc3oc(-c4ccc(C(F)(F)F)cc4)cc3c2)cc1CCCN(C)C | 698 |
| COc1cc(NC(=O)c2sc(-c3ccc(Cl)cc3)cc2NC(=O)N2CCCC2)ccc1OCCN1CCCC1 | 569 |
| CC1CNC(c2cccc(NC(=O)Nc3cccc(C4=NC(C)CN4)c3)c2)=N1 (configuration not stated) | 359 |
| CS(=O)(=O)N1CC2(CCN(CCC(NC(=O)Nc3ccccc3)c3ccc(Cl)c(Cl)c3)CC2)c2ccccc21 (configuration not stated) | 823 |
